Test results published in patent US20220280679A1, “Prophylactic Gel Compositions and Use as Barriers to Bacterial and Viral Colonization” (Innovation Chemical and Enviromental Technologies, Inc., priority 2021, published 2022).
Where two headings read alike, the source gives them in different places.

How the values were obtained:
Format in all cases: cell-based
tissue explants = assay: MTT biocompatibility assay, relative viability of tissue explants
Method: Biocompatibility assays were performed by PerfectUs Biomed group (formerly Extherid) on the samples of IC-2B2 samples from Example 2, Table 2B.2
MTT assays returns relative viability of tissue through calorimetric analysis. Results are reported as percent viability compared to the non-irritative PBS control, which represents 100% viability for each of the four test conditions.
Because 100% viability for each trial is represented by the colorimetric average of the 3 explants treated with PBS. viability greater than 100% indicates UT20 formulations impart cytoprotective effects compared to the neutral PBS control.

[1] = tested on: human bladder tissue explants; assay: Preliminary histology score, ex-vivo human bladder tissue (HBT)
Description: (§1) Active compositions are compared against a commercial control (UT20 58-164-4), a non-irritative control (PBS, phosphate buffered saline), a mild irritant control (1% TX-100, Triton X-100 surfactant).
(§2) The histology reflects a combination of the limits of each tissue models in addition to the reaction to variously added agents. SDS is clearly toxic to the tissue models and the addition of TX100 to the porcine vaginal mucosa removed the ability to assess unambiguously the effect of LPS with a surface active agent such as TX100.

porcine vaginal mucosa = assay: Preliminary histology score, porcine tissue (PMM)
Description: as §1, §2

porcine nasal tissue = assay: Histology scoring on porcine nasal mucosa
Method: A panel of controls for preliminary model development was assessed for biocompatibility properties on Porcine nasal tissue via MTT, and ELISA Assays.
In Table 16, histology scoring of NS A (166A) and NS B (166B) type compositions on porcine nasal mucosa. Sample 165B is a commercial control. It is of some interest that the treatments appear to result in a reduced response with or without the addition of LPS. The detergents SDS and TX100 produce a maximal response while the LPS produces a range of responses. […] The blinded participation of the Histology expert lends additional strength to the data.

Compound | tissue viability (MTT), irritant controls (tissue explants; all test conditions) | histology observation, bladder sections [1] | histology observation, porcine vaginal mucosa (porcine vaginal mucosa; LPS combined with TX100) | Ordinal score (histology) (porcine nasal tissue; control agent alone) | tissue viability (MTT), irritant controls (tissue explants) | HBT Qualitative Score (histology) [1] | PMM Qualitative Score (histology) (porcine vaginal mucosa) | Ordinal score (histology) (porcine nasal tissue) | histology observation, bladder sections ([1]; with addition of LPS)
Triton X-100 [TX100] | decreases in tissue viability | mild cell loss and submucosal edema | lost normal structure entirely | 3 |  |  |  |  | 
CCCCCCCCCCCCOS(=O)(=O)[O-].[Na+] [SDS] |  |  |  |  | decreases in tissue viability | 4+ | 4+ | 4 | 
lipopolysaccharide [LPS] |  |  |  | 1 |  |  |  |  | reactive damage to the bladder sections with a loss of cells on the surface of the section
